For 101 compounds, Kd results are on record in PubChem BioAssay AID1648 (Sanford-Burnham Center for Chemical Genomics, 2009).

The assay deals with Serine/threonine-protein kinase mTOR (Homo sapiens) (UniProt P42345). As to the kind of experiment: mTOR FRB domain ligand binding – biophysical, NMR (AID 1648). To be noted: NMR binding to FRB domain, chemical shift.

Active and inactive are the calls of the source. How the calls were made is not given here. Where only a bound is given, the exact number is not on record here.

Serine/threonine-protein kinase mTOR (Homo sapiens), sequence (P42345 2015-2114): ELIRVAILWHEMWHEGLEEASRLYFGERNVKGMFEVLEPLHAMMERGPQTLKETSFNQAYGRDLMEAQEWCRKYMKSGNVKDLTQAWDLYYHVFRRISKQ

For orientation: Kd means the constant that tells how readily two partners part at equilibrium. Regarding `NC(CCC(=O)Nc1ccc([N+](=O)[O-])cc1)C(=O)O` (stereo unspecified), the Kd is > 4 mM (inactive). The same measure for `CC1(c2ccncc2)NC(=O)NC1=O` (stereo unspecified): > 4 mM (inactive); for `Cc1cc(NC(=O)c2cccc(N3C(=O)CCC3=O)c2)no1`: > 4 mM (inactive). As for `O=C1OC(N2CCOCC2)c2ccccc21` (stereo unspecified), the figure is > 4 mM (inactive). The same measure for `COc1ccccc1-c1nc(-c2ccc(C)nc2OC)no1`: > 4 mM (inactive).

`Nc1ccn(C2O[C@H](CO)[C@@H](O)[C@H]2O)c(=O)n1` (stereo partly specified): the Kd was > 4 mM (inactive). As for `NCCNC(=S)Nc1ccccc1`, the figure is > 4 mM (inactive). As for `OCc1cc(F)cc2c1OCOC2`, the figure is > 4 mM (inactive).

For `CC(C)(C(N)=O)/[N+]([O-])=C\c1ccccc1`, the Kd is > 4 mM (inactive).

Regarding `O=c1n(-c2ccccc2)c(=O)n2n1CCCC2`, the Kd is > 4 mM (inactive). The same measure for `COC(=O)c1ccc(N2CCCC2)nc1`: > 4 mM (inactive); for `Cc1ccc2c(c1)CCCN2C(=O)c1c(C)noc1C`: > 4 mM (inactive). `Nc1cc(C(=O)N2CCCC2)cc(C(=O)N2CCCC2)c1`: the Kd is > 4 mM (inactive).

For the compound `Cc1ccc2nc(SCCC#N)nc(C)c2c1`, the Kd was > 4 mM (inactive). The same measure for `Cc1nccc2c1[nH]c1ccccc12`: > 4 mM (inactive); for `COc1c(O)cc2c(-c3ccccc3)cc(=O)oc2c1OC`: > 4 mM (inactive); for `CCNC(CC(=O)Nc1ccc(F)cc1)C(=O)O` (stereo unspecified): > 4 mM (inactive). Turning to `COc1ccc(-c2noc(-c3ccco3)n2)cc1OC`, the Kd was > 4 mM (inactive). As for `CC1(C)C(=O)CC[C@@]2(C)C1C[C@@H](O)[C@@]1(C)C3=CC(=O)O[C@@H](c4ccoc4)[C@]3(C)CCC21` (stereo partly specified), the figure is > 4 mM (inactive); as for `O=C1CC(=O)N(c2cccc(Cl)c2)N1`, > 4 mM (inactive); as for `COc1cccc(N2CCNCC2)c1`, > 4 mM (inactive). The same measure for `O=C(NCc1cccc(Cl)c1)c1ccco1`: > 4 mM (inactive); for `CSc1nc(C)cc(Oc2ccc(=O)n(C)n2)n1`: > 4 mM (inactive); for `N#CCN1C(=O)c2ccccc2S1(=O)=O`: > 4 mM (inactive).

On to `CCOc1cccc(C(=O)c2ccc(O)c(O)c2O)c1`, for which the Kd was > 4 mM (inactive). The same measure for `Cc1ccc(SCCN2C(=O)NC(C)(C)C2=O)cc1`: > 4 mM (inactive); for `OC1CCN(C(=S)NC2CC2)CC1`: > 4 mM (inactive); for `Nc1nc2ncc(=O)[nH]c2c(=O)[nH]1`: > 4 mM (inactive). As for `CC1(O)CC2C=CC1C2` (stereo unspecified), the figure is > 4 mM (inactive); as for `COc1ccc(-c2oc3cc(O[C@H]4O[C@H](CO)[C@@H](O)[C@H](O)[C@H]4O)c(OC)c(O)c3c(=O)c2OC)cc1O`, > 4 mM (inactive); as for `CCc1ccc2oc(-c3cc(N)cc(C)c3O)nc2c1`, > 4 mM (inactive). The same measure for `CC1O[C@@H](Oc2c(-c3ccc(O)c(O)c3)oc3cc(O)cc(O)c3c2=O)[C@H](O)[C@H](O)[C@H]1O` (stereo partly specified): > 4 mM (inactive); for `Cc1ccccc1NC(=O)C1CC(=O)N=C(N)S1` (stereo unspecified): > 4 mM (inactive); for `CC(=O)Nc1cc(S(=O)(=O)N(C)C)ccc1Cl`: > 4 mM (inactive).

Consider `CC(=O)O[C@H]1CC[C@]2(C)C3CC[C@@]4(C)C(CC5O[C@@]6(CCC(C)CO6)[C@@H](C)C54)C3CC[C@@H]2C1` (stereo partly specified), for which the Kd was > 4 mM (inactive). For `O=C1C2CC=CCC2C(=O)N1c1ccccc1O` (stereo unspecified), the Kd was > 4 mM (inactive). The same measure for `NC(=O)CN1C(=O)c2cccc3cccc1c23`: > 4 mM (inactive); for `NC(=O)c1ccccc1NC(=O)C1CC1`: > 4 mM (inactive); for `O=C(O)CC[N+](=O)[O-]`: > 4 mM (inactive).

For `Cc1occc1C(=O)NCc1ccncc1`, the Kd is > 4 mM (inactive). As for `COc1ccc(NC(=O)CSc2nccc(=O)[nH]2)cc1`, the figure is > 4 mM (inactive); as for `COC(=O)[C@@H]1OC(=O)C2OC23[C@@]1(C)CCC1[C@@]2(C)CCC(=O)C(C)(C)C2C[C@@H](OC(C)=O)[C@]13C` (stereo partly specified), > 4 mM (inactive); as for `O=C(Nc1ccon1)c1ccc(Br)o1`, > 4 mM (inactive). `COc1ccc(-c2nnsc2N)cc1`: the Kd was > 4 mM (inactive). As for `O=C(Nc1nc2c(s1)CCCC2)c1cccnc1`, the figure is > 4 mM (inactive); as for `Nc1ccc(S(=O)(=O)N2CCCCC2)cc1`, > 4 mM (inactive).

For the compound `O=C(c1ccc(N2CCNCC2)cc1)c1cccnc1`, the Kd was > 4 mM (inactive). The same measure for `c1cc(C(N2CCOCC2)N2CCOCC2)ccn1`: > 4 mM (inactive). As for `O=C(Nc1ccccc1[N+](=O)[O-])c1ccc(=O)[nH]n1`, the figure is > 4 mM (inactive).

For the compound `NC(=O)NC1NC(=O)NC1=O` (stereo unspecified), the Kd was > 4 mM (inactive). The same measure for `CC1(C)C(=O)[C@@H]2O[C@@H]2[C@@]2(C)C1C[C@@H](O)[C@]1(C)C2CC[C@@]2(C)[C@H](c3ccoc3)OC(=O)C3OC321` (stereo partly specified): > 4 mM (inactive); for `CN1CCN(S(=O)(=O)c2ccc(=O)[nH]c2)CC1`: > 4 mM (inactive); for `Cc1cc(C(=O)O)n[nH]1`: > 4 mM (inactive). As for `Cc1ccnc(NS(=O)(=O)c2cccs2)c1`, the figure is > 4 mM (inactive); as for `CC1(C)CC(NC(=O)/C=C/C(=O)O)CC(C)(C)N1`, > 4 mM (inactive); as for `NC(=O)C1CCN(CC2CC=CCC2)CC1` (stereo unspecified), > 4 mM (inactive). `COc1ccccc1C(=O)NC1CCN(C)CC1`: the Kd is > 4 mM (inactive).

Regarding `CCOC(=O)c1c(C)nc2c(C#N)cnn2c1C`, the Kd is > 4 mM (inactive). The same measure for `NC1=NC(=O)CC(C(=O)Nc2ccccc2)S1` (stereo unspecified): > 4 mM (inactive); for `O=C(O)c1ccc(NC(=O)c2cccs2)cc1`: > 4 mM (inactive); for `Cn1cnc2cc(NC(=O)c3ccco3)ccc21`: > 4 mM (inactive). For the compound `CN(C)C(=O)CCNS(=O)(=O)c1ccccc1`, the Kd is > 4 mM (inactive). Regarding `CN1CCC(NC(=O)c2cccnc2)CC1`, the Kd is > 4 mM (inactive).

Take `CC(=O)Oc1cccc2ccc(=O)[nH]c12`: the Kd was > 4 mM (inactive). As for `COC(=O)CC1NC2CCCCC2NC1=O` (stereo unspecified), the figure is > 4 mM (inactive).

On to `O=C(Cc1ccc(F)cc1)Nc1ncccn1`, for which the Kd was > 4 mM (inactive).

Turning to `COc1ccc(-c2coc3c(OC)c(OC)cc(O)c3c2=O)cc1`, the Kd is > 4 mM (inactive). As for `Nc1ccc(NS(=O)(=O)c2ccc(N)cc2)cc1`, the figure is > 4 mM (inactive). As for `CC1(C)CC(=O)c2sc(N)nc2C1`, the figure is > 4 mM (inactive); as for `O=C(O)c1cccc2c1OCC2`, > 4 mM (inactive); as for `Cc1nc(-c2cccc(N)c2)cs1`, > 4 mM (inactive). As for `NC1=C(c2ccccc2)C(=O)c2ccccc21`, the Kd was > 4 mM (inactive). As for `CC(C)(C)CC(=O)NC1=NCCS1`, the figure is > 4 mM (inactive); as for `O=[N+]([O-])c1cccc(CN2CCC(O)CC2)c1`, > 4 mM (inactive). As for `O=C(O)Cn1nnnc1-c1ccc(F)cc1`, the figure is > 4 mM (inactive). The same measure for `NC(=O)c1ccc(SCC(=O)O)c([N+](=O)[O-])c1`: > 4 mM (inactive). Regarding `COc1nc(-c2ccccc2)ccc1-c1noc(C)n1`, the Kd is > 4 mM (inactive). The same measure for `C=C1C(=O)OC2CC1C(OC(C)=O)C/C(C)=C/CC/C(C)=C/CC[C@]2(C)O` (stereo partly specified): > 4 mM (inactive). As for `CCOC(=O)c1c(C)nc2sccn12`, the Kd was > 4 mM (inactive). In the case of `CN(C)C(=S)Nc1ccc([N+](=O)[O-])cc1`, the Kd was > 4 mM (inactive). As for `COC(=O)C[C@@H]1C2(C)C(=O)[C@@H](CC3=C4C=C(OC)O[C@@H](c5ccoc5)[C@]4(C)CCC32)[C@H](O)C1(C)C` (stereo partly specified), the figure is > 4 mM (inactive); as for `COc1ccc2c(c1)OCc1c-2oc2cc(OC)ccc12`, > 4 mM (inactive); as for `S=C(NCc1cccnc1)NC1CC1`, > 4 mM (inactive). The same measure for `C[C@]12CCC(=O)C=C1CCC1C2C(=O)C[C@@]2(C)C1CC[C@]2(O)C(=O)CO` (stereo partly specified): > 4 mM (inactive); for `CN1C(=O)c2ccc(C(=O)NC3CCCCC3)cc2C1=O`: > 4 mM (inactive). With `CCN1C(=O)N(CO)C2C1N(C)C(=O)N2C` (stereo unspecified), the Kd is > 4 mM (inactive). The same measure for `Cc1c(C)c2c(c(C)c1O)CCC(C)(CCCC(C)CCCC(C)CCCC(C)C)O2` (stereo unspecified): > 4 mM (inactive). Consider `C/C(=C\CO)CC[C@H](C)CCC[C@H](C)CCCC(C)C`, for which the Kd was > 4 mM (inactive). As for `COC(=O)c1c[nH]c2ccccc12`, the figure is > 4 mM (inactive); as for `O=C(NC(=S)NCCO)c1ccccc1`, > 4 mM (inactive); as for `CCCCCCCCCCCCCCCCCCOCC(O)CO` (stereo unspecified), > 4 mM (inactive). As for `Cc1cc(NC(=O)c2ccc3c(c2)OCCO3)no1`, the figure is > 4 mM (inactive); as for `CCOC(=O)c1cnc2sccn2c1=O`, > 4 mM (inactive). As for `NC(=O)c1ccc(N=Cc2ccc[nH]2)cc1`, the figure is > 4 mM (inactive).

Take `CC(=O)Nc1ccc(S(=O)(=O)NCC2CCCO2)cc1` (stereo unspecified): the Kd is > 4 mM (inactive). The same measure for `CS(=O)(=O)CCCCN=C=S`: > 4 mM (inactive); for `Cc1nc2ccccc2c2c1C(=O)N(N)C2=O`: > 4 mM (inactive).

Turning to `OCc1ccc(OC(F)(F)F)cc1`, the Kd is > 4 mM (inactive). As for `Cc1cc(C(=O)NC(C)c2ccncc2)cs1` (stereo unspecified), the figure is > 4 mM (inactive); as for `Cc1sc2nc(SC3CCOC3=O)[nH]c(=O)c2c1C` (stereo unspecified), > 4 mM (inactive); as for `O=C(CSC1=NCCS1)N1CCc2ccccc21`, > 4 mM (inactive).
